Tests used:
BorF = conditions: read-out: KD, flavin binding to BorF; cited from earlier work
AbeH [1] = target: T1, AbeH (uncultured bacterium, UniProt F6LWA5); test: In vitro halogenation of Trp by AbeH, 1 h reaction, RP-HPLC/MS; format: biochemical, uncultured soil actinomycetes
Description: In vitro halogenation reactions contained 7 μM AbeH, 13 μM holo-AbeF (∼20% saturated with FAD), 2.5 mM NADH, 0.5 mM Trp, 50 mM NaCl or NaBr in 10 mM Tris-HCl pH 8.2 in a final volume of 100 μL. Reactions were initiated by addition of NADH and incubated with 200 rpm shaking at 37 °C for 1 h. Reactions were stopped by heating to 95 °C for 10 min followed by centrifugation at 10,000g for 5 min. Reaction mixtures were analyzed by RP-HPLC using a Kromasil C18 RP-analytical column (100 Å pore size, 4.6 × 250 mm) mounted on a Waters 2695 HPLC. Separation used a 14 min gradient from 5% B to 100% B (Solvent A = H2O/CH3CN 95:5, 0.1% TFA; Solvent B = H2O/CH3CN 5/95, 0.1% TFA) with flow rate 0.6 mL/min. Trp, 5-Cl-Trp, and 5-Br-Trp peaks were monitored with absorbance at 280 nm and retention times and yields were analyzed with using retention times and peak areas from standard curves of authentic standards of Trp (ACROS Organics), 5-Cl-Trp (Santa Cruz Biotechnology) and 5-Br-Trp (Santa Cruz Biotechnology). RP-HPLC purified 5-Cl-Trp and 5-Br-Trp peaks from in vitro halogenation reactions were analyzed on a Waters SYNAPT HDMS mass spectrometer using positive ion-mode ESI-MS with leucine enkephalin as internal standard.
Figure S2: AbeH chlorinates and brominates Trp in vitro.
In vitro halogenation reactions were performed with […], […], 2.5 mM NADH, 50 mM NaCl or NaBr in 10 mM Tris-HCl pH 8.2 at 37 °C shaking at 200 rpm with final volume of […]. Standards and reactions were analyzed on a Kromasil C18 column (100 Å pore size, 4.6 x 250 mm) mounted on a Waters HPLC using a 14 min gradient from 5% -100% B (Solvent A:5% CH3CN+0.1% TFA; Solvent B:95% CH3CN+0.1% TFA) with flow rate 0.6 mL/min using 90 µL injections. Baseline subtracted peak integration was performed on Empower software (Waters). (A) Trp standard (tR = 10.3 min). (B) 5-Cl-Trp standard (tR =11.3 min). (C) 5-Br-Trp standard (tR = 11.4 min). (D) 60 min AbeH in vitro chlorination reaction of 0.5 mM Trp (tR = 11.3 min, 100% conversion to 5-Cl-Trp). […]

AbeH [2] = target: T1, AbeH; format: biochemical, uncultured soil actinomycetes; conditions: same reaction conditions
Description: To test the ability of BorH and AbeH to chlorinate and brominate other substrates, 100 μL reactions containing 5 μM AbeH or BorH, 10 μM of holo-AbeF or holo-BorF, 100 mM NaCl or NaBr, 2.5 mM NADH, and 0.5 mM substrate in HEPES pH 8.0 were incubated for 12 h at 37 °C with shaking at 230 rpm. The reactions were stopped by heating at 95 °C for 5 min and centrifuged at 12,000g for 5 min. Clarified reaction mixtures were analyzed using RP-HPLC on a Kromasil C18 column (100 Å pore size, 4.6 × 250 mm) mounted on a Waters 2695 HPLC. The gradient was as follows: 0–7.5 min, 5–50% B; 7.5–14 min, 50–100%; 14–25 min, 100% B; 25–40 min 100–5% B with flow rate 0.6 mL/min (Solvent A = H2O/CH3CN 95:5, 0.1% TFA; Solvent B = H2O/CH3CN 5/95, 0.1% TFA). Substrates and products were detected by monitoring UV absorbance at the λmax for each substrate. Product peak fractions were analyzed using ESI-MS on a SYNAPT HDMS mass spectrometer in positive ion mode with leucine enkephalin internal standard.

T1 sequence (F6LWA5 entry or part of it): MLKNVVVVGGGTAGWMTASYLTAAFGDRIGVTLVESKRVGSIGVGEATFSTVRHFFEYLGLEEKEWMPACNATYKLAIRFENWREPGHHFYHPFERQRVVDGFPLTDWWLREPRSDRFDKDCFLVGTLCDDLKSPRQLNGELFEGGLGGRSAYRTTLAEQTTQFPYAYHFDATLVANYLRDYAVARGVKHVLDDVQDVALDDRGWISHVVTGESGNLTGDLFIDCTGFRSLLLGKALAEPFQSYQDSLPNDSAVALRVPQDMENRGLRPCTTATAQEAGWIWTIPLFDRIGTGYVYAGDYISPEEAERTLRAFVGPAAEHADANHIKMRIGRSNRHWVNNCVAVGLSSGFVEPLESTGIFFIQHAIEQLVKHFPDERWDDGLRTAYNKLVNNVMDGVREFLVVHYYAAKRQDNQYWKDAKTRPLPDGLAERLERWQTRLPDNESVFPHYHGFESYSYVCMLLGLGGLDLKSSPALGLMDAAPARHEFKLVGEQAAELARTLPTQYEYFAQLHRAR

Compound	Kd (BorF) [nM]	Conversion to 5-Br-Trp (AbeH [1]; 60 min AbeH bromination reaction of 0.5 mM Trp, 50 mM NaBr)	Conversion to 5-Cl-Trp (AbeH [1]; 60 min AbeH chlorination reaction of 0.5 mM Trp, 50 mM NaCl) [%]	Product formation by AbeH when NaCl was replaced with NaI (AbeH [1]; NaI)	AbeH bromination compared with chlorination of the substrate, in words (AbeH [2])
Cc1cc2nc3c(=O)[nH]c(=O)nc-3n(C[C@H](O)[C@H](O)[C@H](O)COP(=O)(O)OP(=O)(O)OC[C@H]3O[C@@H](n4cnc5c(N)ncnc54)[C@H](O)[C@@H]3O)c2cc1C [FAD]	100				
N[C@@H](Cc1c[nH]c2ccccc12)C(=O)O [Tryptophan, L-tryptophan]		~ 80%	100	No product peak was observed	prefers chlorination over bromination

— paper PMC11840605, “Crystallographic and Thermodynamic Evidence of Negative Coupling in the Flavin-Dependent Tryptophan Halogenases AbeH and BorH” (ACS Omega, 2025)
